≈ marks a conversion by molar mass, not a printed value. Calls of active or inactive are those of the source. No cut-off for these calls is given here.
Tests used:
Staphylococcus aureus [1] = assay: Antibacterial activity against methicillin-resistant Staphylococcus aureus at 1 mg/disc after 24 hrs by disc diffusion method; assay type: functional
Micrococcus luteus [2] = assay: Antibacterial activity against Micrococcus luteus MTCC 106 after 24 hrs; assay type: functional; settings: MTCC 106, 24 h
A549 [3] = assay: Cytotoxicity against human A549 cells assessed as cell death at 200 ug/ml by MTT assay; assay type: functional
Klebsiella aerogenes [4] = assay: Antibacterial activity against Enterobacter aerogenes MTCC 111 at 1 mg/disc after 24 hrs by disc diffusion method; assay type: functional
Candida albicans [5] = assay: Antifungal activity against Candida albicans MTCC 227 after 48 to 72 hrs; assay type: functional
Klebsiella pneumoniae [6] = assay: Antibacterial activity against Klebsiella pneumoniae MTCC 109 after 24 hrs; assay type: functional; settings: MTCC 109, 24 h
A549 [7] = assay: Cytotoxicity against human A549 cells assessed as cell death at 100 ug/ml by MTT assay; assay type: functional
Proteus vulgaris [8] = assay: Antibacterial activity against Proteus vulgaris MTCC 1771 after 24 hrs; assay type: functional
Proteus vulgaris [9] = assay: Antibacterial activity against Proteus vulgaris MTCC 1771 at 1 mg/disc after 24 hrs by disc diffusion method; assay type: functional
Klebsiella aerogenes [10] = assay: Antibacterial activity against Enterobacter aerogenes MTCC 111 after 24 hrs; assay type: functional
Klebsiella pneumoniae [11] = assay: Antibacterial activity against Klebsiella pneumoniae MTCC 109 at 1 mg/disc after 24 hrs by disc diffusion method; assay type: functional
Candida albicans [12] = assay: Antifungal activity against Candida albicans MTCC 227 at 1 mg/disc after 48 hrs by disc diffusion method; assay type: functional
Salmonella typhimurium [13] = assay: Antibacterial activity against Salmonella typhimurium MTCC 1251 after 24 hrs; assay type: functional, Salmonella enterica subsp. enterica serovar Typhimurium
Staphylococcus aureus [14] = assay: Antibacterial activity against Staphylococcus aureus MTCC 96 at 1 mg/disc after 24 hrs by disc diffusion method; assay type: functional
Staphylococcus aureus [15] = assay: Antibacterial activity against Staphylococcus aureus MTCC 96 after 24 hrs; assay type: functional
Shigella flexneri [16] = assay: Antibacterial activity against Shigella flexneri MTCC 1457 at 1 mg/disc after 24 hrs by disc diffusion method; assay type: functional
A549 [17] = assay: Cytotoxicity against human A549 cells assessed as cell death at 50 ug/ml by MTT assay; assay type: functional
Staphylococcus aureus [18] = assay: Antibacterial activity against methicillin-resistant Staphylococcus aureus after 24 hrs; assay type: functional
Shigella flexneri [19] = assay: Antibacterial activity against Shigella flexneri MTCC 1457 after 24 hrs; assay type: functional; settings: MTCC 1457, 24 h
[20] = Antifungal activity against Malassezia pachydermatis at 1 mg/disc after 48 hrs by disc diffusion method; assay type: functional
Salmonella typhimurium [21] = assay: Antibacterial activity against Salmonella typhimurium MTCC 1251 at 1 mg/disc after 24 hrs by disc diffusion method; assay type: functional, Salmonella enterica subsp. enterica serovar Typhimurium; settings: for inhibition: Salmonella enterica subsp. enterica serovar Typhimurium
Micrococcus luteus [22] = assay: Antibacterial activity against Micrococcus luteus MTCC 106 at 1 mg/disc after 24 hrs by disc diffusion method; assay type: functional
[23] = Salmonella enterica, MTCC 1251, 24 h

Row | Compound | inhibition zone (IZ) (Staphylococcus aureus [1]) [mm] | MIC (Micrococcus luteus [2]) [µg/mL] | Activity (A549 [3]) [%] | inhibition zone (IZ) (Klebsiella aerogenes [4]) [mm] | MIC (Candida albicans [5]) | MIC (Klebsiella pneumoniae [6]) [µg/mL] | Activity (A549 [7]) [%] | MIC (Proteus vulgaris [8]; MTCC 1771, 24 h) [µg/mL] | inhibition zone (IZ) (Proteus vulgaris [9]) [mm] | MIC (Klebsiella aerogenes [10]; MTCC 111, 24 h) [µg/mL] | inhibition zone (IZ) (Klebsiella pneumoniae [11]) [mm] | inhibition zone (IZ) (Candida albicans [12]) [mm] | MIC (Salmonella typhimurium [13]; [23]) [µg/mL] | inhibition zone (IZ) (Staphylococcus aureus [14]) [mm] | inhibition zone (IZ) (Shigella flexneri [16]) [mm] | Activity (A549 [17]) [%] | MIC (Staphylococcus aureus [18]) [µg/mL] | MIC (Shigella flexneri [19]) [µg/mL] | inhibition zone (IZ) (Salmonella typhimurium [21]) [mm] | inhibition zone (IZ) (Micrococcus luteus [22]) [mm] | other results
1 | CN1C(=O)[C@@]2(c3cc(F)ccc31)N(C)C[C@](C#N)(C(=O)c1c[nH]c3ccccc13)[C@]21C(=O)Nc2ccccc21 | 9 | 500 (≈ 962 µM) | 25.51 | 11 | 500 µg/mL (≈ 962 µM) | 500 (≈ 962 µM) | 12.22 | 500 (≈ 962 µM) | 8 | 125 (≈ 241 µM) | 9 | 9 | 500 (≈ 962 µM) | 10 | 9 | 1.41 | 500 (≈ 962 µM) | 500 (≈ 962 µM) | 8 | 10 | MIC (Staphylococcus aureus [15]; MTCC 96, 24 h): 500 µg/mL (≈ 962 µM); inhibition [20]: inactive
2 | CN1C[C@](C#N)(C(=O)c2c[nH]c3ccccc23)[C@]2(C(=O)Nc3ccccc32)[C@@]12C(=O)Nc1ccc(Cl)cc12 | 8 | 1000 (≈ 1920 µM) | 13.15 |  | 500 µg/mL (≈ 958 µM) | 125 (≈ 239 µM) | 7.38 | 250 (≈ 479 µM) | 13 |  | 14 | 9 | 500 (≈ 958 µM) | 9 | 11 | 3.58 | 500 (≈ 958 µM) | 1000 (≈ 1920 µM) | 8 | 10 | inhibition (Klebsiella aerogenes [4]): inactive; MIC (Klebsiella aerogenes [10]): inactive; MIC (Staphylococcus aureus [15]; MTCC 96, 24 h): 500 µg/mL (≈ 958 µM); inhibition [20]: inactive
3 | CCCCCCN1C(=O)[C@@]2(c3ccccc31)N(C)C[C@](C#N)(C(=O)c1c[nH]c3ccccc13)[C@]21C(=O)Nc2ccccc21 | 10 | 500 (≈ 875 µM) | 62.03 | 9 | inactive | 125 (≈ 219 µM) | 56.74 | 500 (≈ 875 µM) | 9 | 500 (≈ 875 µM) | 11 |  | 500 (≈ 875 µM) | 11 | 10 | 48.03 | 500 (≈ 875 µM) | 500 (≈ 875 µM) | 9 | 10 | inhibition (Candida albicans [12]): inactive; MIC (Staphylococcus aureus [15]; MTCC 96, 24 h): 125 µg/mL (≈ 219 µM); inhibition [20]: inactive
4 | CCOC(=O)CN1C(=O)[C@@]2(c3ccccc31)N(C)C[C@](C#N)(C(=O)c1c[nH]c3ccccc13)[C@]21C(=O)Nc2ccccc21 |  |  | 27.78 |  |  |  | 21.25 |  | 8 |  |  | 9 |  | 9 |  | 11.04 |  |  |  |  | inhibition (Staphylococcus aureus [1]): inactive; inhibition (Klebsiella aerogenes [4]): inactive; inhibition (Klebsiella pneumoniae [11]): inactive; inhibition (Shigella flexneri [16]): inactive; inhibition zone (IZ) [20]: 11 mm; inhibition (Salmonella typhimurium [21]): inactive; inhibition (Micrococcus luteus [22]): inactive
5 | CN1C[C@](C#N)(C(=O)c2c[nH]c3ccccc23)[C@]2(C(=O)Nc3ccccc32)[C@@]12C(=O)N(Cc1ccccc1)c1ccccc12 | 9 | 500 (≈ 866 µM) | 23.95 | 10 | 500 µg/mL (≈ 866 µM) | 125 (≈ 216 µM) | 16.03 | 500 (≈ 866 µM) | 9 | 500 (≈ 866 µM) | 11 | 9 |  | 11 | 7 | 9.26 | 500 (≈ 866 µM) | 500 (≈ 866 µM) |  | 9 | MIC (Salmonella typhimurium [13]; Salmonella enterica subsp. enterica serovar Typhimurium): inactive; MIC (Staphylococcus aureus [15]; MTCC 96, 24 h): 125 µg/mL (≈ 216 µM); inhibition zone (IZ) [20]: 10 mm; inhibition (Salmonella typhimurium [21]): inactive
6 | CCN1C(=O)[C@@]2(c3ccccc31)N(C)C[C@](C#N)(C(=O)c1c[nH]c3ccccc13)[C@]21C(=O)Nc2ccccc21 | 11 | 500 (≈ 970 µM) | 26.58 | 8 | 500 µg/mL (≈ 970 µM) | 500 (≈ 970 µM) | 18.61 | 500 (≈ 970 µM) | 9 | 500 (≈ 970 µM) | 10 | 8 | 500 (≈ 970 µM) | 9 | 9 | 7.16 | 500 (≈ 970 µM) | 500 (≈ 970 µM) | 7 | 11 | MIC (Staphylococcus aureus [15]; MTCC 96, 24 h): 500 µg/mL (≈ 970 µM); inhibition [20]: inactive
7 | CN1C(=O)[C@@]2(c3cc(Cl)ccc31)N(C)C[C@](C#N)(C(=O)c1c[nH]c3ccccc13)[C@]21C(=O)Nc2ccccc21 | 10 | 125 (≈ 233 µM) | 22.21 | 11 | inactive | 125 (≈ 233 µM) | 12.98 | 125 (≈ 233 µM) | 11 | 125 (≈ 233 µM) | 10 |  | 500 (≈ 933 µM) | 9 | 9 | 3.76 | 500 (≈ 933 µM) | 500 (≈ 933 µM) | 9 | 12 | inhibition (Candida albicans [12]): inactive; MIC (Staphylococcus aureus [15]; MTCC 96, 24 h): 500 µg/mL (≈ 933 µM); inhibition [20]: inactive
8 | Cc1ccc2c(c1)[C@]1(C(=O)N2)N(C)C[C@](C#N)(C(=O)c2c[nH]c3ccccc23)[C@]12C(=O)Nc1ccccc12 | 10 | 500 (≈ 997 µM) | 62.96 | 9 | inactive | 500 (≈ 997 µM) | 56.34 | 500 (≈ 997 µM) | 10 | 500 (≈ 997 µM) | 9 |  | 500 (≈ 997 µM) |  | 11 | 31.6 | 500 (≈ 997 µM) | 125 (≈ 249 µM) | 10 | 10 | inhibition (Candida albicans [12]): inactive; inhibition (Staphylococcus aureus [14]): inactive; MIC (Staphylococcus aureus [15]): inactive; inhibition [20]: inactive
9 | CN1C(=O)[C@@]2(c3cc([N+](=O)[O-])ccc31)N(C)C[C@](C#N)(C(=O)c1c[nH]c3ccccc13)[C@]21C(=O)Nc2ccccc21 |  |  | 60.22 |  |  |  | 24.36 |  |  |  |  | 9 |  |  |  | 9.27 |  |  | 8 | 7 | inhibition (Staphylococcus aureus [1]): inactive; inhibition (Klebsiella aerogenes [4]): inactive; inhibition (Proteus vulgaris [9]): inactive; inhibition (Klebsiella pneumoniae [11]): inactive; inhibition (Staphylococcus aureus [14]): inactive; inhibition (Shigella flexneri [16]): inactive; inhibition zone (IZ) [20]: 12 mm
10 | CN1C[C@](C#N)(C(=O)c2c[nH]c3ccccc23)[C@]2(C(=O)Nc3ccccc32)[C@@]12C(=O)N(c1ccccc1)c1ccccc12 |  |  | 47.89 |  |  |  | 41.58 |  |  |  | 9 | 13 |  | 7 |  | 39.41 |  |  |  |  | inhibition (Staphylococcus aureus [1]): inactive; inhibition (Klebsiella aerogenes [4]): inactive; inhibition (Proteus vulgaris [9]): inactive; inhibition (Shigella flexneri [16]): inactive; inhibition zone (IZ) [20]: 14 mm; inhibition (Salmonella typhimurium [21]): inactive; inhibition (Micrococcus luteus [22]): inactive
11 | CN1C[C@](C#N)(C(=O)c2c[nH]c3ccccc23)[C@]2(C(=O)Nc3ccccc32)[C@@]12C(=O)Nc1ccc([N+](=O)[O-])cc12 |  |  | 55.26 | 8 |  |  | 36.65 |  |  |  |  | 9 |  |  |  | 18.37 |  |  | 8 |  | inhibition (Staphylococcus aureus [1]): inactive; inhibition (Proteus vulgaris [9]): inactive; inhibition (Klebsiella pneumoniae [11]): inactive; inhibition (Staphylococcus aureus [14]): inactive; inhibition (Shigella flexneri [16]): inactive; inhibition [20]: inactive; inhibition (Micrococcus luteus [22]): inactive
12 | CN[C@@H]1[C@H](O[C@H]2[C@H](O[C@H]3[C@H](O)[C@@H](O)[C@H](N=C(N)N)[C@@H](O)[C@@H]3N=C(N)N)O[C@@H](C)[C@]2(O)C=O)O[C@@H](CO)[C@H](O)[C@H]1O [STREPTOMYCIN] | 30 | 6.25 (≈ 10.7 µM) |  | 22 |  | 6.25 (≈ 10.7 µM) |  |  | 30 | 25 (≈ 43 µM) | 20 |  | 30 (≈ 51.6 µM) | 14 | 30 |  | 6.25 (≈ 10.7 µM) | 6.25 (≈ 10.7 µM) | 18 | 26 | MIC (Proteus vulgaris [8]): inactive; MIC (Staphylococcus aureus [15]; MTCC 96, 24 h): 6.25 µg/mL (≈ 10.7 µM)
13 | CC(=O)N1CCN(c2ccc(OCC3COC(Cn4ccnc4)(c4ccc(Cl)cc4Cl)O3)cc2)CC1 (stereo not given) [KETOCONAZOLE] |  |  |  |  | 25 µg/mL (≈ 47 µM) |  |  |  |  |  |  | 28 |  |  |  |  |  |  |  |  | inhibition zone (IZ) [20]: 26 mm
